Earlier results on 3 molecules are cited in patent publication US20190083428A1, “SALT BALANCED VAGINAL PRODUCT AND METHOD” (Good Clean Love, Inc., priority 2014, published 2019).

Data set [1] deals with lactobacilli.
For data set [2], the system named is HSV-2. The following applies: after a single exposure.
The conditions of data set [3]: hyperosmolal concentrations.

nonoxynol-9 [Example N9]: the toxicity to lactobacilli result in data set [1] is “toxic”.
For the molecule `CC(O)CO` (stereo not shown) [propylene glycol], the “susceptibility to HSV-2” value in data set [2] is “markedly increased susceptibility”. Moreover, the toxicity result in data set [3] is reported as “obvious toxicity”.
Consider `OCC(O)CO` [glycerol], for which, in data set [3], the toxicity entry was “obvious toxicity”.
